The values that follow come from US8536183B2, “3-pyridylcarbonyl-piperazinylsulfonyl derivatives” (Convergence Pharmaceuticals Limited, priority 2008, dated 2013).

Structures can show the parent of a compound that is named as a salt.

T1 sequence (Q00975 whole entry): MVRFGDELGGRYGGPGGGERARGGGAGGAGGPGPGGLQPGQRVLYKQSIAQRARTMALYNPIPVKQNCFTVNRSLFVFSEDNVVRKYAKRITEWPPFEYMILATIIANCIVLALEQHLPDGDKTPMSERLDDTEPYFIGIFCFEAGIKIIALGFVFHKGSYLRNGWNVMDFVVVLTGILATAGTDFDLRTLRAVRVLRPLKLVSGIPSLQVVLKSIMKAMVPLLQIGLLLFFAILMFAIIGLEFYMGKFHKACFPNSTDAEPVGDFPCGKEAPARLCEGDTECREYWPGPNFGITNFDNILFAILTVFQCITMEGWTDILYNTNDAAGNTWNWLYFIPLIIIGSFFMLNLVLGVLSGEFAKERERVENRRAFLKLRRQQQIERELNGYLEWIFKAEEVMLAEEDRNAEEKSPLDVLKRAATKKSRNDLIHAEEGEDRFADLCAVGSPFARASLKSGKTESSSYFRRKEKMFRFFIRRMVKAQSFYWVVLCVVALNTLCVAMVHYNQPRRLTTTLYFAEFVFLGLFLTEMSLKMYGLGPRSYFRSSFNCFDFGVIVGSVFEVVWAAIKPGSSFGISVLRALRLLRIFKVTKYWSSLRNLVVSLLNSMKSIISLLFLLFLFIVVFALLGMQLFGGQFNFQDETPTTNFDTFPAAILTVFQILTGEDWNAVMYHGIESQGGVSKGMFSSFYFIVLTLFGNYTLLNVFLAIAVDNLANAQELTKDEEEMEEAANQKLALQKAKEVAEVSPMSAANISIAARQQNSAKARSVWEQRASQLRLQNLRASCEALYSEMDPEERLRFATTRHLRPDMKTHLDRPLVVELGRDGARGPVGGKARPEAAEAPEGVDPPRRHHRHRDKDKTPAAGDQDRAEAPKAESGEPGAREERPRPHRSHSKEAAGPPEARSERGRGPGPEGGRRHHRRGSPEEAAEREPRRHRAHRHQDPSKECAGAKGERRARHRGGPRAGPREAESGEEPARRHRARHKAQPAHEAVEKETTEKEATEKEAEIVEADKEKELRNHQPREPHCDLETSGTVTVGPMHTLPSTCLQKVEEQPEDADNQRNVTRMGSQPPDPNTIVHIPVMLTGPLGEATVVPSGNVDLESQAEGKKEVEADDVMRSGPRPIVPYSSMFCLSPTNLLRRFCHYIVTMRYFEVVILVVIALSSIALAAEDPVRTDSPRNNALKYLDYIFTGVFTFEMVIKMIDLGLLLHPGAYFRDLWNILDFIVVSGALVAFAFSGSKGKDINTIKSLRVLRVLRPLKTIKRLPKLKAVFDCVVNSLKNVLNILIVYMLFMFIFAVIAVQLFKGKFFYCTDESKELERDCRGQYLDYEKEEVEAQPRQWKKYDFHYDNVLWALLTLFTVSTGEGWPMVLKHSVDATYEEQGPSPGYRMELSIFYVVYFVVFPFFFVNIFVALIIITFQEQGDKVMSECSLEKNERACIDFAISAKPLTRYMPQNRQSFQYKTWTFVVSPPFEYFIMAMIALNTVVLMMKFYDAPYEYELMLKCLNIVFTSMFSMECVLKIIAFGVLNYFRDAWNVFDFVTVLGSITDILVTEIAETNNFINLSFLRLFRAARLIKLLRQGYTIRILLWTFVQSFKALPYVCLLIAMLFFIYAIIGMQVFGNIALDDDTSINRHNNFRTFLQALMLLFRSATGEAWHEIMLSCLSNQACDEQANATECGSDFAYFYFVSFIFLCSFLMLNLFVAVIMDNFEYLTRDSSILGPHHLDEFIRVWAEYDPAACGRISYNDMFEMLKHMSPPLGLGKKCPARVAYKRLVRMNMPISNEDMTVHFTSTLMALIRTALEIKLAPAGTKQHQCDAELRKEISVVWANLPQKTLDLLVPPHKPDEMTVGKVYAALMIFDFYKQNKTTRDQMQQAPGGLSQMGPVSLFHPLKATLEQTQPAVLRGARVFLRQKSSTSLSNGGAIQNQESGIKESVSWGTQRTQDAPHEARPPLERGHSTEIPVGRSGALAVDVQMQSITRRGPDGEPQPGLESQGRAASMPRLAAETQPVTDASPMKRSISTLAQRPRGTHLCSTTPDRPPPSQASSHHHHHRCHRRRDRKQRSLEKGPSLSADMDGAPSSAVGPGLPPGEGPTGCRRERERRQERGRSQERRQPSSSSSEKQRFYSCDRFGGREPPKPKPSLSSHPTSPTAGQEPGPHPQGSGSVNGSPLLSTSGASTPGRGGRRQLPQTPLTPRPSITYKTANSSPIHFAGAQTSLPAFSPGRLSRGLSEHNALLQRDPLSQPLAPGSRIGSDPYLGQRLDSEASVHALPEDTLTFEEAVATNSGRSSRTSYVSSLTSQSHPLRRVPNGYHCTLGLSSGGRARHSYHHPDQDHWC

The experiment concerns the target T1, hCaV2.2 (Homo sapiens, UniProt Q00975).
T1 construct: expressed in transfected cells; plasmids pCIN5-hCaV2.2, pCIH-hCaV β3, pCIP-α2δ1
Kind of experiment: hCaV2.2 assay, IonWorks planar array electrophysiology in stably transfected HEK293 cells. Type of experiment: cell-based. The settings on record: current elicited by the 1st depolarising pulse inhibited by 50%; HEK293 cells expressing human CaV2.2 alpha/beta3/alpha2delta1; read-out: mean pIC50 (tonic pIC50) (converted). Here is the method: Compounds of the invention may be tested for in vitro biological activity in the hCaV2.2 assay in accordance with the following studies:
Stable cell lines expressing the human CaV2.2 α (als) subunit, along with the human […] and α2δ1 auxiliary subunits were created following sequential transfection and selection of human embryonic kidney (HEK293) cells. HEK293 cells were cultured in Dulbecco's modified Eagles media/F12 media (Invitrogen, Cat #041-95750V) containing 10% foetal bovine serum, with added L-glutamine (2 mM; Invitrogen, Cat #25030-024) and non-essential amino acids (5%; Invitrogen, Cat #11140-035). Initially HEK293 cells were transfected with two plasmid vectors for expression of the hCaV2.2 α subunit (pCIN5-hCaV2.2 which carries a neomycin resistance marker) and the hCaV β3 subunit (pCIH-hCaV β3 which carries a hygromycin resistance marker). Clonal cell lines were isolated following selection in media supplemented with 0.4 mg ml^−1 Geneticin G418 (Invitrogen, Cat #10131-027) and 0.1 mg ml^1 hygromycin (Invitrogen, Cat #10687-010). These clonal cell lines were assessed for Cav2.2α/β3-mediated current expression using the IonWorks planar array electrophysiology technology (described below). A clonal line was identified that gave a reasonable level of functional Cav2.2α/β3 current expression. This cell line was transfected with a plasmid vector for expression of the human […] subunit (pCIP-α2δ1 which carries a puromycin resistance marker) and clonal cell lines isolated following selection in media containing 0.62 μg ml^−1 puromycin (Sigma, Cat #P-7255), in addition to 0.4 mg ml^−1 Geneticin G418 and 0.1 mg ml^−1 hygromycin. Several cell lines were identified that gave robust levels of Cav2.2α/β3/α2δ1-mediated current expression and one of these was selected for compound profiling. Expression of all three subunits within this cell line was continuously maintained by the inclusion of G418 (0.4 mg ml^−1), hygromycin (0.1 mg ml^−1) and puromycin (0.62 μg ml^−1). Cells were maintained at 37° C. in a humidified environment containing 5% CO2 in air. Cells were liberated from the T175 culture flasks for passage and harvesting using TrpLE (Invitrogen, Cat #12604-013).
Cells were grown to 30-60% confluence in T175 flasks and maintained at 30° C. for 24 hrs prior to recording. Cells were lifted by removing the growth media, washing with Ca^2+ free PBS (Invitrogen, Cat #14190-094) and incubating with 3 ml of warmed (37° C.) TrpLE (Invitrogen, Cat #12604-013) for 6 minutes. Lifted cells were suspended in 10 ml of extracellular buffer. Cell suspension was then placed into a 15 ml tube and centrifuged for 2 minutes at 700 rpm. After centrifugation, the supernatant was removed and the cell pellet was resuspended in 4.5 ml of extracellular solution.
Currents were recorded at room temperature (21-23° C.) using the IonWorks planar array electrophysiology technology (Molecular Devices Corp.). Stimulation protocols and data acquisition were carried out using a microcomputer (Dell Pentium 4). In order to determine planar electrode hole resistances (Rp), a 10 mV, 160 ms potential difference was applied across each hole. These measurements were performed before cell addition. After cell addition a seal test was performed prior to antibiotic (amphotericin) circulation to achieve intracellular access. Leak subtraction was conducted in all experiments by applying a 160 ms hyperpolarizing (10 mV) prepulse 200 ms before the test pulses to measure leak conductance. Test pulses stepping from the holding potential (VH) of −90 mV to +10 mV were applied for 20 ms and repeated 10 times at a frequency of 10 Hz. In all experiments, the test pulse protocol was performed in the absence (pre-read) and presence (post-read) of a compound. Pre- and post-reads were separated by a compound addition followed by a 3-3.5 min incubation.
The intracellular solution contained the following (in mM): K-gluconate 120, KCl 20 mM, MgCl2 5, EGTA 5, HEPES 10, adjusted to pH 7.3. […]
For `Cc1ccc(C(=O)N2CCN(S(=O)(=O)c3ccc(C(F)(F)F)cc3)C[C@@H]2C)cn1` [Example 1, (2S)-2-Methyl-1-[(6-methyl-3-pyridinyl)carbonyl]-4-{[4-(trifluoromethyl)phenyl]sulfonyl}piperazine], the IC50 is no less than 31.6 µM. To `Cc1ccncc1C(=O)N1CCN(S(=O)(=O)c2ccc(C(F)(F)F)cc2)C[C@@H]1C` [Example 18, (2S)-2-Methyl-1-[(4-methyl-3-pyridinyl)carbonyl]-4-{[4-(trifluoromethyl)phenyl]sulfonyl}piperazine] belongs no less than 31.6 µM; to `Cc1cc(C)c(C(=O)N2CCN(S(=O)(=O)c3ccc(C#N)cc3C)C[C@@H]2C)cn1` [Example 68, 4-({(3S)-4-[(4,6-dimethyl-3-pyridinyl)carbonyl]-3-methyl-1-piperazinyl}sulfonyl)-3-methylbenzonitrile], no less than 31.6 µM; to `Cc1ccc(C(=O)N2CCN(S(=O)(=O)c3cc(C(F)(F)F)ccc3C)C[C@@H]2C)cn1` [Example 59, (2S)-2-methyl-1-[(6-methyl-3-pyridinyl)carbonyl]-4-{[2-methyl-5-(trifluoromethyl)phenyl]sulfon-yl}piperazine], no less than 31.6 µM. Turning to `O=C(c1cccnc1)N1CCN(S(=O)(=O)c2ccc(C(F)(F)F)cc2)CC1` [Example 3, 1-(3-Pyridinylcarbonyl)-4-{[4-(trifluoromethyl)phenyl]sulfonyl}piperazine], the IC50 is no less than 31.6 µM.

Take `Cc1ncccc1C(=O)N1CCN(S(=O)(=O)c2ccc(C(F)(F)F)cc2)C[C@H]1C` [Example 20, (2R)-2-methyl-1-[(2-methyl-3-pyridinyl)carbonyl]-4-{[4-(trifluoromethyl)phenyl]sulfonyl}piperazine formic acid salt (1:1)]: the IC50 is no less than 31.6 µM. The same measure for `CCN(CC)c1ccc(C(=O)N2CCN(S(=O)(=O)c3ccc(C(F)(F)F)cc3)CC2)cn1` [Example 56, N,N-diethyl-5-[(4-{[4-(trifluoromethyl)phenyl]sulfonyl}-1-piperazinyl)carbonyl]-2-pyridinamine]: no less than 10 µM; for `Cc1ccc(C(=O)N2CCN(S(=O)(=O)c3ccc(C(F)(F)F)cc3C)CC2)cn1` [Example 74, 1-[(6-methyl-3-pyridinyl)carbonyl]-4-{[2-methyl-4-(trifluoromethyl)phenyl]sulfonyl}piperazine]: no less than 31.6 µM; for `O=C(c1ccc(NC2CCOCC2)nc1)N1CCN(S(=O)(=O)c2ccc(C(F)(F)F)cc2)CC1` [Example 70, N-(tetrahydro-2H-pyran-4-yl)-5-[(4-{[4-(trifluoromethyl)phenyl]sulfon-yl}-1-piperazinyl)carbonyl]-2-pyridinamine]: no less than 31.6 µM. The same measure for `Cc1nc(N2CCC2)ccc1C(=O)N1CCN(S(=O)(=O)c2ccc(C(F)(F)F)cc2)C[C@@H]1C` [Example 39, (2S)-1-{[6-(1-Azetidinyl)-2-methyl-3-pyridinyl]carbonyl}-2-methyl-4-{[4-(trifluoromethyl)phenyl]sulfonyl}piperazine hydrochloride]: no less than 31.6 µM; for `Cc1ccc(C(=O)N2CCN(S(=O)(=O)c3ccc(C#N)cc3)C[C@@H]2C)cn1` [Example 72, 4-({(3S)-3-methyl-4-[(6-methyl-3-pyridinyl)carbonyl]-1-piperazinyl}sulfonyl)benzo-nitrile]: no less than 31.6 µM.

`Cc1cc(C#N)ccc1S(=O)(=O)N1CCN(C(=O)c2ccc(Cl)nc2C)[C@@H](C)C1` [Example 25, 4-({(3S)-4-[(6-Chloro-2-methyl-3-pyridinyl)carbonyl]-3-methyl-1-piperazinyl}sulfonyl)-3-methylbenzonitrile]: the IC50 was no less than 10 µM.

Regarding `C[C@H]1CN(S(=O)(=O)c2ccc(C(F)(F)F)cc2)CCN1C(=O)c1ccc(N(C)C)nc1` [Example 41, N,N-Dimethyl-5-[((2S)-2-methyl-4-{[4-(trifluoromethyl)phenyl]sulfonyl}-1-piperazinyl)carbonyl]-2-pyridinamine hydrochloride], the IC50 was no less than 10 µM.
